Biological target: T1, human CGRP receptor (Homo sapiens, UniProt O60894+Q16602)
T1 construct: SK-N-MC membranes (˜20 μg protein) are incubated for 180 minutes at ambient temperature; endogenous in cells; host or cells: SK-N-MC cells (membrane preparation)
Assay: Binding studies with SK-N-MC cells (125I-CGRP displacement on SK-N-MC membranes)
Settings: 50 pM 125I-iodotyrosyl-CGRP, 180 minutes at ambient temperature
Protocol: A. Binding Studies with SK-N-MC Cells (Expressing the Human CGRP Receptor)
SK-N-MC membranes (˜20 μg protein) are incubated for 180 minutes at ambient temperature with 50 pM ^125I-iodotyrosyl-Calcitonin-Gene-Related Peptide and increasing concentrations of the test substances in a total volume of […] (assay buffer: 10 mM tris, 50 mM NaCl, 5 mM MgCl2, 1 mM EDTA, pH=7.4). The incubation is ended by rapid filtration through GF/B-glass fibre filters treated with polyethyleneimine (0.1%) using a cell harvester. The protein-bound radioactivity is measured using a gamma counter. Non-specific binding is defined as the bound radioactivity after the presence of 1 μM BIBN4096BS during incubation.
The concentration binding curves are analysed using computer-aided non-linear curve fitting.

T1 sequence (Q16602 23-461): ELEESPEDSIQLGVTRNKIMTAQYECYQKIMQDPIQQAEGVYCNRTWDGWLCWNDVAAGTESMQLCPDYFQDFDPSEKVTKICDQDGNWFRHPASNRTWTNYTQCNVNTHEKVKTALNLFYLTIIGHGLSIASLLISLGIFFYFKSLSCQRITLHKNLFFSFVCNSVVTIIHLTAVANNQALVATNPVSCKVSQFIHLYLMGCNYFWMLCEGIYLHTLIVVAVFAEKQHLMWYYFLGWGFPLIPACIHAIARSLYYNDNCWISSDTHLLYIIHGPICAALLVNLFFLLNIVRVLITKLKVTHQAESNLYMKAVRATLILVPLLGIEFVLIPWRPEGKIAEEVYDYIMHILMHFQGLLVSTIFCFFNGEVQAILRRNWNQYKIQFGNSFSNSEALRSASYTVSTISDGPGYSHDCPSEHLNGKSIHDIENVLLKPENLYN
T1 sequence (O60894 27-148): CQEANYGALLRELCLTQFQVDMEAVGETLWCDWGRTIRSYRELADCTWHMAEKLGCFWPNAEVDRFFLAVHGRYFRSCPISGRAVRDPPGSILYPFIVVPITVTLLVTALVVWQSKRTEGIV

SMILES	Ki [nM]
Cn1c(N2CCC(n3c(=O)[nH]c4ncccc43)CC2)cc(C(=O)N2CCc3cc(F)ccc32)cc1=O [Example 2, 4′-(5-fluoro-2,3-dihydroindole-1-carbonyl)-1′-methyl-4-(2-oxo-2,3-dihydroimidazo[4,5-b]-pyridin-1-yl)-3,4,5,6-tetrahydro-2H,1′H-[1,2′]bipyridinyl-6′-one]	480
COc1ccc2c(c1)CCN(C1CCN(c3cc(C(=O)N4CCc5cc(F)ccc54)cc(=O)[nH]3)CC1)C(=O)N2 [Example 3, 3-[4′-(5-fluoro-2,3-dihydroindole-1-carbonyl)-6′-oxo-3,4,5,6,1′,6′-hexahydro-2H-1,2′-bipyridinyl-4-yl]-7-methoxy-1,3,4,5-tetrahydro-1,3-benzodiazepin-2-one]	8.4
CC1(C)CN(C(=O)c2cc(N3CCC(n4c(=O)[nH]c5ncccc54)CC3)[nH]c(=O)c2)c2ccc(F)cc21 [Example 4, 4′-(5-fluoro-3,3-dimethyl-2,3-dihydroindole-1-carbonyl)-4-(2-oxo-2,3-dihydroimidazo[4,5-b]-pyridin-1-yl)-3,4,5,6-tetrahydro-2H,1′H-[1,2′]bipyridinyl-6′-one]	3.8
